# Data from patent publication US7262173B2, “Chemosensitizing with liposomes containing oligonucleotides” (Georgetown University, priority 1997, dated 2007).
# Legend:
# [1] = Tissue distribution of raf ODN after i.v. injection; format: in vivo, Balb/c nu/nu mice; details: 30 mg/kg i.v., free ODN; data not shown
# Protocol: FIG. 4: Tissue distribution profiles of LE-ATG-AS raf ODN (SEQ ID NO:1).
# Male Balb/c nu/nu mice (Charles River, Raleigh, N.C., USA; 10–12 weeks old) were maintained in the Research Resources Facility of the Georgetown University according to accredited procedure, and fed purina chow and water ad libitum. […] At 5 min, 15 min, 30 min, 1 h, 2 h, 4 h, 8 h, 24 h and 48 h after injection, one animal in each group was bled from the retro-orbital sinus into heparinized tubes under anesthesia, and killed by cervical dislocation.
# The extracts were loaded on to 20% polyacrylamide/3 M urea gels and electrophoresed in TBE buffer. […] The radiolabeled probe was generated by 5′-end-labeling of ATG-S′ raf ODN (SEQ ID NO:3) with γ^32-P-ATP using T4 polynucleotide kinase and purification over Chroma Spin-10 columns (Clontech, Palo Alto, Calif., and USA). […] The autoradiographs were scanned using a computer program (ImageQuant software, Molecular Dynamics, Sunnyvale, Calif., and USA), and the amounts of ATG-AS raf ODN (SEQ ID NO:1) in various samples were calculated by comparison to standards.
# Raf-1 [2] = assay: Raf-1 expression in normal mouse tissues after i.v. ODN; format: in vivo, Balb/c nu/nu mice; details: i.v. 6 mg/kg daily for 5 days
# Protocol: (§1) FIG. 7: Effects of intravenous administration of LE-ATG-AS raf ODN (SEQ ID NO:1) our Raf-1 expression in normal and tumor tissues. Raf-1 expression was examined in liver, kidneys and SQ-20B tumor xenograft of Balb/c nu/nu mice after i.v. injections of 6 mg/kg daily dose of LE-ATG-AS raf ODN (SEQ ID NO:1) (AS) or LE-ATG-S raf ODN (SEQ ID NO:3) (S) for five consecutive days. Control mice (C) received normal saline. Representative data showing Raf-1 expression in lysates normalized for protein content by immunoprecipitation and immunoblotting (top). Quantification data are shown as mean±s.d. from three mice (bottom).
# Logarithmically growing SQ-20B cells were injected subcutaneously (2×10^6 cells) in the flank regions on both sides in male Balb/c nu/nu mice under mild anesthesia. Tumors were allowed to grow to a mean tumor volume of 115 mm^3 before initiation of ODN treatment. Two treatment routes were followed: intravenous and intratumoral. For intravenous delivery, mice were randomly divided into six groups. […]
# (§2) For in vivo expression studies, tumor tissue and organs were homogenized in the cell lysis buffer using Polytron homogenizer (Westbury, N.Y., USA). Raf-1 expression was analyzed in tissue homogenates by immunoprecipitation and immunoblotting as described above.
# Raf-1 [3] = assay: Raf-1 expression in SQ-20B tumor xenografts after i.v. or intratumoral ODN; format: in vivo, human; details: intravenous treatment; compared with untreated controls
# Protocol: as §1
# FIG. 8: Inhibition of Raf-1 protein expression in SQ-20B tumor xenografts by intratumoral administration of LE-ATG-AS raf ODN (SEQ ID NO:1): Each animal received intratumoral injections of LE-ATG-AS raf ODN (SEQ ID NO:1) (AS) on the right flank and LE-ATG-S raf ODN (SEQ ID NO:3) (S) on the left flank at a dose of 4 mg/kg daily for seven days as explained in the experimental procedures. […] Quantification data shown are mean±s.d., from three representative mice. […]
# as §2
# SQ-20B cells [4] = assay: Radiation survival dose response assay; format: cell-based, human; details: free ODN 100 μm
# Protocol: The appropriate numbers of SQ-20B cells were seeded in duplicate T-25 tissue culture flasks (Corning, N.Y., USA) in medium containing 20% FBS, and allowed to attach for 8 h at 37° C. […] Irradiations were performed using ^137Cs gamma irradiator (JL Shepard MARK I irradiator) and a dose rate of 114 cGy/min. The cells were irradiated with total doses of 1 Gy, 3 Gy, 5 Gy and 13 Gy, followed by incubation for 2 h. The medium in all flasks was then replaced with 20% FBS containing medium and incubations continued for 7–10 days. Surviving colonies were fixed and stained with 0.5% methylene blue and 0.13% carbol fuchsin in methanol. Colonies containing 50 or more cells were scored and data were fitted to the computer-generated single-hit multitarget and linear-quadratic models of radiation survival response.
# SQ-20B cells treated with liposome-encapsulated ATG-AS raf ODN (SEQ ID NO:1) are radiosensitive. Radiation survival dose responses of SQ-20B cells exposed to LE-ATG-AS raf ODN (SEQ ID NO:1), LE-ATG-S raf ODN (SEQ ID NO:3), or blank liposomes are presented in Table 1. […] The single-hit, multitarget (target model) and the linear quadratic model (LQ) are most commonly used to analyze cellular radiation survival. The target model is based on the parameters D0 and fl, where D0 is the inverse of the terminal slope of the survival curve and fl is the extrapolation of this slope to the ordinate. […]
# SQ-20B cells [5] = details: free ODN 100 μM, 1% serum, previously demonstrated, cited from earlier work
substance,measurement,setting,value
"5′-GTG-CTCCATTGATGC-3′ (antisense GTGCTCCATTGATGC; DNA, linkages s1 o12 s1 (s phosphorothioate, o phosphodiester), methylation of C not given here) [ATG-AS raf ODN, antisense ODN to translation initiation site of human c-raf-1 cDNA; one terminal base linkage at each end phosphorothioate]",only time at which intact ODN seen in various organs,[1],5 min
same,inhibition of Raf-1 expression in normal tissues,Raf-1 [2],No inhibition
same,effect on Raf-1 expression in tumor tissue,Raf-1 [3],no effect
same,dose modifying factor (DMF),SQ-20B cells [4],approximately 1.4
same,ODN taken up by SQ-20B cells,SQ-20B cells [5]; at 6 hours,< 2%
same,maximal uptake by SQ-20B cells,SQ-20B cells [5]; at 12 hours,approximately 4%
